Where two headings read alike, the source gives them in different places.
Legend:
CDK12 = CDK12 (Homo sapiens (Human), UniProt Q9NYV4); assay: LANCE Ultra kinase assay, CDK12; assay type: biochemical
Method: (§1) The inhibitory activities of the test compound on the kinases were evaluated by LANCE Ultra assay, which was used for detecting ATP-dependent phosphorylation of a ULight-4E-BP1 (Thr37/Thr46) substrate peptide (150 nM). In short, enzymatic reactions were performed in a reaction buffer (25 mM HEPES (pH 7.5), 10 mM MgCl2, 0.01% BSA, 0.01% Tween 20, and 1 mM DTT). The assay was performed in a 384-well plate (6 μL). A final concentration of an ATP substrate was […], and a final concentration of the ULight-4E-BP1 (Thr37/Thr46) substrate peptide was 150 nM. A final concentration of CDK9, CDK12, or CDK13 was 0.3, 30, or 30 nM, respectively. Pre-incubation of the compound and the enzyme was performed at room temperature for 60 min. The reaction was stopped by adding 10 mM EDTA and 0.15 nM Eu-labeled anti-phospho-eIF4E-binding protein 1 (Thr37/46) antibody in LANCE detection buffer after incubation at room temperature for 15, 60, or 90 min. Time-resolved fluorescence (excitation, 320 nm; emission donor, 615 nm; emission acceptor, 665 nm) was monitored using an EnVision spectrophotometer (PerkinElmer). Readings were computed as (acceptor count/donor count)×1000. IC50 values were derived by fitting a sigmoidal dose-response curve to a plot of assay readouts of inhibitor concentrations. All fittings were computed using program Prism 5.03 (GraphPad Software, San Diego, CA).

CDK13 = CDK13 (Homo sapiens (Human), UniProt Q14004); assay: LANCE Ultra kinase assay, CDK13; assay type: biochemical
Method: as §1

CDK9 = CDK9 (Homo sapiens (Human), UniProt P50750); assay: LANCE Ultra kinase assay, CDK9; assay type: biochemical
Method: as §1

VCaP cell = VCaP cell proliferation, CellTiter-Glo Luminescent Cell Viability Assay; assay type: cell-based; settings: Homo sapiens, VCaP cells
Method: The VCaP cell proliferation activity was determined by CellTiter-Glo Luminescent Cell Viability Assay (Promega, Madison, WI). The cells were inoculated on a 96-well plate in their respective culture mediums, and incubated in an incubator with 5% CO2 at 37° C. After incubation overnight, serial dilutions of the compound were prepared, and added into the 96-well plate. A CellTiter-Glo reagent (volume equal to the volume of the cell culture medium present in each well) was added (e.g., 100 μL of the reagent was added into 100 μL of the cell culture medium in the 96-well plate). The contents were mixed on an orbital shaker for 2 min to induce the cell lysis. The cells in the 96-well plate were incubated at room temperature for 10 min, to stabilize the luminescent signal. Luminescence was recorded: the luminescent signal for each well was acquired using an Infinite M1000 Pro plate reader (Tecan, Zurich, Switzerland), and the data was analyzed using GraphPad Prism software (GraphPad Software Inc, La Jolla, CA).

[1] = 30 nM enzyme, 60 min pre-incubation, ULight-4E-BP1 150 nM, read-out: CDK12 IC50
[2] = 30 nM enzyme, 60 min pre-incubation, ULight-4E-BP1 150 nM, read-out: CDK13 IC50

Chain of CDK12 (Q9NYV4 whole entry): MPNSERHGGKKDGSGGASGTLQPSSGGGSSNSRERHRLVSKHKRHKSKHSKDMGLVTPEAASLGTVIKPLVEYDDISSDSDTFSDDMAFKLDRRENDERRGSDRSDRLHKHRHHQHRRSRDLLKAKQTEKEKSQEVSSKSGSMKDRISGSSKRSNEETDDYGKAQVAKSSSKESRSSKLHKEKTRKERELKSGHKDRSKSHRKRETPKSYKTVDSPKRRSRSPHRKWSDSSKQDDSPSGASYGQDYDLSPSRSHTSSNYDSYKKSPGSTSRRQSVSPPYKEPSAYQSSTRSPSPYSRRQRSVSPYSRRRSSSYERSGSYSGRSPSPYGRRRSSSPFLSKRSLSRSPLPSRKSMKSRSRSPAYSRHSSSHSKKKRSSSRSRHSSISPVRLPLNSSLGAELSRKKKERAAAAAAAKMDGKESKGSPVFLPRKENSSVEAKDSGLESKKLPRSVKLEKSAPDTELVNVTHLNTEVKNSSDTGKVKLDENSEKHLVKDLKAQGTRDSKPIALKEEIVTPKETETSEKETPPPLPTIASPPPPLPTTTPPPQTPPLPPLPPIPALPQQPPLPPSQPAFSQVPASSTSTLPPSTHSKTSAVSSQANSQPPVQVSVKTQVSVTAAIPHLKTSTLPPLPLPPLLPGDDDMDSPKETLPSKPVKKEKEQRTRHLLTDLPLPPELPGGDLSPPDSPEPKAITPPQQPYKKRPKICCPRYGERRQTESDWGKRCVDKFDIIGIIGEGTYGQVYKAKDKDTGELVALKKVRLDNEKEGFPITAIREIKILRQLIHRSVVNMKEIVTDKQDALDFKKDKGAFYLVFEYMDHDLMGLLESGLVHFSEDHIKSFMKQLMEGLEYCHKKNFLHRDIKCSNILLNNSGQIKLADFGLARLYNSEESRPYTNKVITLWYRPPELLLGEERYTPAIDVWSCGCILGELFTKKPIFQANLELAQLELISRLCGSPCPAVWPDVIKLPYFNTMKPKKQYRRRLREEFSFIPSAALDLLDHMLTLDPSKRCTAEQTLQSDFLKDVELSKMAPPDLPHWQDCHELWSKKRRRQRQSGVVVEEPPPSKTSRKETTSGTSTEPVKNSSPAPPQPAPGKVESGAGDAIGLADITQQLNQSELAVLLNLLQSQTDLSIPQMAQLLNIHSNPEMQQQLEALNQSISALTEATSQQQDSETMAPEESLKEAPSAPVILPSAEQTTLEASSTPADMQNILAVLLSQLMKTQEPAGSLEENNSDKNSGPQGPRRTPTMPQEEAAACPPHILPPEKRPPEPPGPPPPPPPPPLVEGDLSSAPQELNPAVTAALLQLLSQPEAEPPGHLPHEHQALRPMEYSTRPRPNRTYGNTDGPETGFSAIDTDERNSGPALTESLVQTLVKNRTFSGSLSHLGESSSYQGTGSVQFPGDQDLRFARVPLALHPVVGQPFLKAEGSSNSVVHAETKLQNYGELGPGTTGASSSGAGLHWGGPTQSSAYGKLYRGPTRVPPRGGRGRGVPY
Chain of CDK12 (O75909 whole entry partner): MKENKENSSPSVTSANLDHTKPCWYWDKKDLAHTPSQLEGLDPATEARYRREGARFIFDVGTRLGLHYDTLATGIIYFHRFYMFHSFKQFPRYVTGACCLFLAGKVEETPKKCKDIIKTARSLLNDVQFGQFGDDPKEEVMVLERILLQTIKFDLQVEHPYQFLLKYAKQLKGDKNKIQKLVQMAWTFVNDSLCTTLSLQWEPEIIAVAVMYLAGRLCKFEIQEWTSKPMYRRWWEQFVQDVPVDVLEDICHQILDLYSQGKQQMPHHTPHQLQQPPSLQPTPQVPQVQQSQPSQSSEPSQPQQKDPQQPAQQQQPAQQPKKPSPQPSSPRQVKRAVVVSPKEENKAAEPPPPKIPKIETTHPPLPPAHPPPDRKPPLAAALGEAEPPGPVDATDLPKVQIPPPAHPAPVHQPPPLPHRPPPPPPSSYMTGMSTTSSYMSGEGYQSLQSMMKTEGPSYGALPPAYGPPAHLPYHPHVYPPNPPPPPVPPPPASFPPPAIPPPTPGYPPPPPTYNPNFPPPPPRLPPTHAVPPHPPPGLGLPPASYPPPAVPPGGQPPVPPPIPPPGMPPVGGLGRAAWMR
Chain of CDK13 (Q14004 whole entry, looked up): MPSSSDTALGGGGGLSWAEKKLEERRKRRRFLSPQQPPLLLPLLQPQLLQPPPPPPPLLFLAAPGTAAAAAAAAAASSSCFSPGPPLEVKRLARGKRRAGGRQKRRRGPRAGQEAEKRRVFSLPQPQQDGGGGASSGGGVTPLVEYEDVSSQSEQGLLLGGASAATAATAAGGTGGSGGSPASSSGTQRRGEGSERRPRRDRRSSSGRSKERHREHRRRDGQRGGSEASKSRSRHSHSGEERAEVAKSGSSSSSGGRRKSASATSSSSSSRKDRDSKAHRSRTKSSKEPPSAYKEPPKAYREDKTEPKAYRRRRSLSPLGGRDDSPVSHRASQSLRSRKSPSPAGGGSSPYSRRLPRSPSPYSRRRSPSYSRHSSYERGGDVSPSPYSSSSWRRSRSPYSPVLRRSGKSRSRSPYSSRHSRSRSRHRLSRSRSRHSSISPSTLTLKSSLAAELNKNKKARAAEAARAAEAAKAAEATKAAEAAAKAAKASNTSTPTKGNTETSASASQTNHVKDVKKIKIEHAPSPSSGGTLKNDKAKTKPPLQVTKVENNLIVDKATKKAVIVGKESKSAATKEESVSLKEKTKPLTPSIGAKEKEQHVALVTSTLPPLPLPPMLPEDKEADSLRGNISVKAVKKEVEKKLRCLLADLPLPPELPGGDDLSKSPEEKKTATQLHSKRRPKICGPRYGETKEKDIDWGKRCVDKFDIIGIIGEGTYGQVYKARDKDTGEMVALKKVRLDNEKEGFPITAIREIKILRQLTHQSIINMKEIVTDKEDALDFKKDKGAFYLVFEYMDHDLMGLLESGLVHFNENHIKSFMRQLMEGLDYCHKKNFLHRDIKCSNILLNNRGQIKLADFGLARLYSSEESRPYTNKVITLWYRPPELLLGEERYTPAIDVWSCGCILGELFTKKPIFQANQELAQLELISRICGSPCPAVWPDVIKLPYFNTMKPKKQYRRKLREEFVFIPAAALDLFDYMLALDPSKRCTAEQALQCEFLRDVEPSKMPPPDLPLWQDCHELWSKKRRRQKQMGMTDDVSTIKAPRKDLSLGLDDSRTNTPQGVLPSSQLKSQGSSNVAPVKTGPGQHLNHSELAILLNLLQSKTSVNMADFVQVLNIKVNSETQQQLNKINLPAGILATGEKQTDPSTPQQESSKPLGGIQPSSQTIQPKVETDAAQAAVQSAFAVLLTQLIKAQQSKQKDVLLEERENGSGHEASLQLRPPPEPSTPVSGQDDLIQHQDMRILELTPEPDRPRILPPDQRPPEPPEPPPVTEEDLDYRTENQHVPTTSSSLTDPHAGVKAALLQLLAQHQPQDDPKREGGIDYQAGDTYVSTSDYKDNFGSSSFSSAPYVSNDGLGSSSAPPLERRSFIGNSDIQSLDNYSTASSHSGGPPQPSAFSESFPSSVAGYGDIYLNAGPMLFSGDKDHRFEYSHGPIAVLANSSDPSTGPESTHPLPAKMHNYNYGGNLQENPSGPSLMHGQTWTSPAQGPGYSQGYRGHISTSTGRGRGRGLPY
Chain of CDK13 (O75909 whole entry partner, looked up): as the sequence (O75909 whole entry partner) above
Chain of CDK9 (P50750 whole entry, looked up, species assumed): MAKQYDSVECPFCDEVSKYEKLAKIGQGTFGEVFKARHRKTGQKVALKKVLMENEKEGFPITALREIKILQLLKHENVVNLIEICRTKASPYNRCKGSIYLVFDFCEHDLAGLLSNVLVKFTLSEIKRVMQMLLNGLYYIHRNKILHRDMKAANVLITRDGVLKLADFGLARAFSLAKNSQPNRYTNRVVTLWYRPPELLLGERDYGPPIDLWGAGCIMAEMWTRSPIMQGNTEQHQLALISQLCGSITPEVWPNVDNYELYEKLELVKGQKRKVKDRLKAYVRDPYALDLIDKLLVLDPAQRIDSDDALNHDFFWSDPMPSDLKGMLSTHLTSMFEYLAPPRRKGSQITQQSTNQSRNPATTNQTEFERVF
Chain of CDK9 (O60563 whole entry partner, looked up, species assumed): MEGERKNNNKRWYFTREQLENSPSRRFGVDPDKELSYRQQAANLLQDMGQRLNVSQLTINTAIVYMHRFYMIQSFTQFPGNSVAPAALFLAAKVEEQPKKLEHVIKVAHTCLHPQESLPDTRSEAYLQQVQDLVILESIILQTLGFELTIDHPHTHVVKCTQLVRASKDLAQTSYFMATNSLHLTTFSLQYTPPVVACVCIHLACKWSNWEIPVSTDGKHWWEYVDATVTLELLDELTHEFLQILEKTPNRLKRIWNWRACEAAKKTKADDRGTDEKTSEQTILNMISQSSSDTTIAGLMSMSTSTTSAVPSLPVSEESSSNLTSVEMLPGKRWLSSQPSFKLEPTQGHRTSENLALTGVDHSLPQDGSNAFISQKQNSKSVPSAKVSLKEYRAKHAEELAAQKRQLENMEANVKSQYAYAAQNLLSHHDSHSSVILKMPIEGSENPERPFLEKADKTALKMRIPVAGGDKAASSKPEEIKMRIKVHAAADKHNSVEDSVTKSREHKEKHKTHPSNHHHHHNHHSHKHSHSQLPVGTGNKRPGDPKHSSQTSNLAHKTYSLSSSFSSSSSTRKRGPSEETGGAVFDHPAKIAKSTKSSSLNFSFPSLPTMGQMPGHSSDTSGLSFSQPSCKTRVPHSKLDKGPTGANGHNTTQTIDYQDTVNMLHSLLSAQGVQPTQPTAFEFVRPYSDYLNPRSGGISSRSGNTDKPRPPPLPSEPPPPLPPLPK

Structure (SMILES)	IC50 (VCaP cell) [nM]	IC50 (CDK12; [1]) [nM]	IC50 (CDK13; [2]) [nM]	IC50 (CDK12) [nM]	inhibitory activities on CDK12/13 kinase (CDK12) (CDK12; in words)	IC50 (CDK13) [nM]	inhibitory activities on CDK12/13 kinase (CDK13) (CDK13; in words)	IC50 (CDK9; 0.3 nM enzyme, 60 min pre-incubation, ULight-4E-BP1 150 nM) [nM]	selectivity for CDK9 kinase (CDK9; CDK12/13 versus CDK9, in words)
C=CC(=O)Nc1cc(N(C(=O)NCc2ccccc2)[C@H]2CC[C@H](Nc3ccc(C#N)cn3)CC2)ccc1N1CCC(N(C)C)CC1 [YJZ5118, N-(5-(3-benzyl-1-((1r,4r)-4-((5-cyanopyridin-2-yl)amino)cyclohexyl)ureido)-2-(4-(dimethylamino)piperidin-1-yl)phenyl)acrylamide]	< 15			15 to 50	strong	15 to 50	strong	> 500	good selectivity
C=CC(=O)Nc1cccc(N(C(=O)NCc2ccccc2)[C@H]2CC[C@H](Nc3ccc(C#N)cn3)CC2)c1 [YJZ4156, N-(3-(3-benzyl-1-((1r,4r)-4-((5-cyanopyridin-2-yl)amino)cyclohexyl)ureido)phenyl)acrylamide]	50 to 500	> 500	50 to 500						
C=CC(=O)Nc1cc(N(C(=O)NCc2ccccc2)[C@H]2CC[C@H](Nc3ccc(C#N)cn3)CC2)ccc1N1CCN(C(C)=O)CC1 [YJZ5111, N-(2-(4-acetylpiperazin-1-yl)-5-(3-benzyl-1-((1r,4r)-4-((5-cyanopyridin-2-yl)amino)cyclohexyl)ureido)phenyl)acrylamide]	15 to 50	15 to 50	15 to 50						

Now from value to molecule, other results behind:

IC50 (VCaP cell) [nM]	IC50 (CDK12; [1]) [nM]	IC50 (CDK13; [2]) [nM]	Structure (SMILES)	IC50 (CDK12) [nM]	inhibitory activities on CDK12/13 kinase (CDK12) (CDK12; in words)	IC50 (CDK13) [nM]	inhibitory activities on CDK12/13 kinase (CDK13) (CDK13; in words)	IC50 (CDK9; 0.3 nM enzyme, 60 min pre-incubation, ULight-4E-BP1 150 nM) [nM]	selectivity for CDK9 kinase (CDK9; CDK12/13 versus CDK9, in words)
50 to 500	15 to 50	15 to 50	C=CC(=O)Nc1cc(N(C(=O)NCc2ccccc2)[C@H]2CC[C@H](Nc3ccc(C#N)cn3)CC2)ccc1N1C[C@H]2C[C@@H]1CN2C [YJZ6096, N-(5-(3-benzyl-1-((1r,4R)-4-((5-cyanopyridin-2-yl)amino)cyclohexyl)ureido)-2-((1R,4R)-5-methyl-2,5-diazabicyclo[2.2.1]heptan-2-yl)phenyl)acrylamide]						
50 to 500	> 500	50 to 500	C=CC(=O)Nc1cc(N(C(=O)NCc2ccccc2)[C@H]2CC[C@H](Nc3ccc(C#N)cn3)CC2)ccc1N1CCC(N(C)C)C1 (stereo partly shown) [YJZ6082]						

— patent US20250100994A1, “CDK12/13 COVALENT INHIBITORS OR PHARMACEUTICAL COMPOSITION THEREOF, AND USES THEREOF” (The Regents of the University of Michigan, priority 2023, published 2025)
